The source made the active and inactive calls. The rule behind the calls is not given here.
Tests used:
[1] = biological target: T1, Relaxin receptor 1 (Homo sapiens) (UniProt Q9HBX9); assay: Agonist activity at RXFP1 receptor (unknown origin) expressed in HEK293 cells assessed as stimulation of cAMP production incubated for 30 mins by TR-FRET based HTRF assay relative to forskolin; type: functional, cell-based
T1 sequence (whole entry): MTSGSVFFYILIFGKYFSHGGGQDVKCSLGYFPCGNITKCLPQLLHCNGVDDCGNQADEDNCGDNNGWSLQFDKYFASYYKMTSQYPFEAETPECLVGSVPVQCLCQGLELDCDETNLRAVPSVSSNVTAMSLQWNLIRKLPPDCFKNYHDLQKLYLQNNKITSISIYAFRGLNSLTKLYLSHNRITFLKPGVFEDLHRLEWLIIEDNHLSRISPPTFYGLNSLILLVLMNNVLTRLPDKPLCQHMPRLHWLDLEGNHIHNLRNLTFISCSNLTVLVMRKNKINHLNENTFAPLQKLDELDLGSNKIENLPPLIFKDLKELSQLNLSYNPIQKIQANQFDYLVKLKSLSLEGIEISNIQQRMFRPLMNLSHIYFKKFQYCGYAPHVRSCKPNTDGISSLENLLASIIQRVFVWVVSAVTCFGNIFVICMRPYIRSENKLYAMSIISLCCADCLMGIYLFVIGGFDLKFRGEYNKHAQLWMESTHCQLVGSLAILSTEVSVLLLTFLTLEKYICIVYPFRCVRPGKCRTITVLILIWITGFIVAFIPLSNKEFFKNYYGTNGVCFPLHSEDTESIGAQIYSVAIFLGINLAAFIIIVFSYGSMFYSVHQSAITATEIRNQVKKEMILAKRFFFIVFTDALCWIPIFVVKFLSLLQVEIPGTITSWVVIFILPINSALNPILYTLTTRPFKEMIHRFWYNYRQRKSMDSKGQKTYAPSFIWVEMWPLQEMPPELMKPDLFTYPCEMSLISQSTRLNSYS

Relaxin receptor 1 = biological target: T2, Relaxin receptor 1 (Homo sapiens, UniProt Q9HBX9); assay: Agonist activity at RXFP1 receptor (unknown origin) expressed in HEK293 cells assessed as stimulation of cAMP production incubated for 30 mins by TR-FRET based HTRF assay; type: functional, cell-based
T2 sequence (Q9HBX9 whole entry): T1 sequence (whole entry)

| %max [1] | AC50 (Relaxin receptor 1; read-out: AC50) [µM] | AC50 (Relaxin receptor 1; hek293) | SMILES |
| --- | --- | --- | --- |
| 99% | 2.65 |  | O=C(Nc1cccc(C(F)(F)F)c1)c1ccccc1NC(=O)c1ccccc1OCCN1CCCCC1 |
| 83% | 9.4 |  | O=C(Nc1cccc(C(F)(F)F)c1)c1ccccc1NCCc1ccccc1 |
| 96% | 0.666 |  | CCOc1ccccc1C(=O)Nc1ccccc1C(=O)Nc1cccc(C#N)c1 |
| inactive |  | Not Active | O=C(Nc1cccc(-c2ccc(C(F)(F)F)cc2)c1)c1ccccc1NC(=O)C1CCCCC1 |
| 93% | 1.06 |  | CCOc1ccccc1C(=O)Nc1ccccc1C(=O)Nc1cccc(C(C)(C)C)c1 |
| 70% | 2.65 |  | CC(C)(C)c1cccc(NC(=O)c2ccccc2NC(=O)C2CCCCC2)c1 |
| 81% | 2.36 |  | O=C(Nc1ccccc1C(=O)Nc1cccc(C(F)(F)F)c1)c1ccco1 |
| 45% | 9.4 |  | O=C(NCc1ccco1)c1ccccc1NC(=O)c1ccccc1NC(=O)C1CCCCC1 |
| 94% | 1.33 |  | CC(C)(C)OC(=O)N1CCN(CCOc2ccccc2C(=O)Nc2ccccc2C(=O)Nc2cccc(C(F)(F)F)c2)CC1 |
| 79% | 5.29 |  | CC(C)(C)OC(=O)Nc1ccccc1C(=O)Nc1cccc(C(F)(F)F)c1 |
| 98% | 0.747 |  | COCCOc1ccccc1C(=O)Nc1ccccc1C(=O)Nc1cccc(C(F)(F)F)c1 |
| 78% | 47.1 |  | O=CNc1ccccc1C(=O)Nc1cccc(C(F)(F)F)c1 |
| 42% | 7.47 |  | COc1cccc(OC)c1C(=O)Nc1ccccc1C(=O)Nc1cccc(C(F)(F)F)c1 |
| 66% | 59.3 |  | CN(C)CCCOc1ccccc1C(=O)Nc1ccccc1C(=O)Nc1cccc(C(F)(F)F)c1 |
| inactive |  | Not Active | O=C(Nc1ccccc1[N+](=O)[O-])c1ccccc1NC(=O)C1CCCCC1 |
| 64% | 1.32 |  | O=C(Nc1ccccc1C(=O)Nc1cccc(C(F)(F)F)c1)c1ccccc1 |
| 84% | 4.2 |  | O=C(Nc1cccc(C(F)(F)F)c1)c1ccccc1Nc1ccccc1 |
| 32% | 187 |  | Cc1ccc(NC(=O)c2ccccc2NC(=O)C2CCCCC2)cc1 |
| inactive |  | Not Active | CCOc1ccccc1C(=O)Nc1ccccc1C(=O)Nc1cccc(-c2nnn[nH]2)c1 |
| 94% | 4.2 |  | O=C(Nc1ccccc1C(=O)Nc1cccc(C(F)(F)F)c1)c1cc(C(F)(F)F)cc(C(F)(F)F)c1 |
| 99% | 0.471 |  | CC(C)Oc1ccccc1C(=O)Nc1ccccc1C(=O)Nc1cccc(C(F)(F)F)c1 |
| inactive |  | Not Active | O=C(Nc1cc(C(F)(F)F)ccc1F)c1ccccc1NC(=O)C1CCCCC1 |
| 74% | 29.7 |  | CCOc1ccccc1C(=O)Nc1ccccc1C(=O)Nc1ccccn1 |
| 75% | 2.97 |  | O=C(Nc1cccc(C(F)(F)F)c1)c1ccccc1NC(=O)C1CCC1 |
| inactive |  | Not Active | O=C(NCc1ccccc1C(F)(F)F)c1ccccc1NC(=O)C1CCCCC1 |
| 97% | 1.67 |  | O=C(Nc1ccccc1C(=O)Nc1cccc(C(F)(F)F)c1)c1cccc(Br)c1 |
| 71% | 47.1 |  | O=C(Nc1cccc(C(F)(F)F)c1)c1ccccc1NCc1cccc(C(F)(F)F)c1 |

| SMILES | %max [1] | AC50 (Relaxin receptor 1; read-out: AC50) [µM] | AC50 (Relaxin receptor 1; hek293) |
| --- | --- | --- | --- |
| CCOc1ccccc1C(=O)Nc1ncccc1C(=O)Nc1cccc(S(=O)(=O)C(F)(F)F)c1 | 98% | 1.67 |  |
| CC(=O)Nc1ccccc1C(=O)Nc1cccc(C(F)(F)F)c1 | 51% | 74.7 |  |

— ChEMBL document CHEMBL3714716, “Modulators of the relaxin receptor 1” (2015)
